Tests used:
[1] = biological target: Human immunodeficiency virus type 1 reverse transcriptase (Human immunodeficiency virus 1, UniProt Q72547); test: Inhibition of HIV1 reverse transcriptase using r(A)350 template and d(T)16 primer as substrate preincubated for 1 hr before adding substrate by PicoGreen EnzChek Reverse Transcriptase Assay
MT2 = test: Cytotoxicity against human MT2 cells assessed as inhibition of cell growth; format: toxicity, cell-based
[2] = system: Human immunodeficiency virus 1; test: Anti-viral activity against wild type HIV1 strain IIIB infected in human MT2 cells assessed as protection of cells from infection; format: functional, organism-based; conditions: Human immunodeficiency virus 1, IIIB
[3] = Therapeutic index, ratio of CC50 for cytotoxicity against human MT2 cells to EC50 for antiviral activity against wild type HIV1 strain IIIB infected in human MT2 cells assessed as protection of cells from infection; format: toxicity, cell-based; conditions: read-out: TI

Molecule `CN(CCc1ccc(Cl)c(Oc2cc(Cl)cc(C#N)c2)c1)C(=O)CCl` has an IC50 [1] of 4400 nM and a CC50 (MT2) of 470 nM.

Work on `N#Cc1cc(Cl)cc(Oc2ccc(Cl)cc2OCCc2cccc(S(=O)(=O)F)c2)c1` yielded an IC50 [1] of 150 nM, an EC50 [2] of 45000 nM and a CC50 (MT2) of 70000 nM.

With `N#Cc1cc2c(Oc3ccccc3OCCC(=O)N3CCCC3)cccn2c1` the IC50 [1] was 20 nM, the EC50 [2] was 17 nM and the CC50 (MT2) was > 100000 nM.

`C=CC(=O)NCCc1ccc(Cl)c(Oc2cc(Cl)cc(C#N)c2)c1` showed an IC50 [1] of 400 nM, an EC50 [2] of 3100 nM and a CC50 (MT2) of 29000 nM.

`N#Cc1cc(Cl)cc(Oc2cc(OCCNC(=O)CCl)ccc2Cl)c1` gave an IC50 [1] of 2750 nM and a CC50 (MT2) of 5800 nM.

`CN(C)C(=O)CCOc1ccccc1Oc1cccc2cc(C#N)ccc12` showed an IC50 [1] of 20 nM, an EC50 [2] of 3 nM and a CC50 (MT2) of 33000 nM.

Molecule `C=CC(=O)Nc1cccc(COc2cc(Cl)ccc2Oc2cc(Cl)cc(C#N)c2)c1` has an IC50 [1] of 900 nM and a CC50 (MT2) of 19000 nM.

In the case of `N#Cc1cc(Cl)cc(Oc2ccc(Cl)cc2OCCn2cc(Cl)c(=O)[nH]c2=O)c1`, the EC50 [2] is reported as 17 nM.

With `C=CC(=O)N(C)CCOc1ccc(Cl)c(Oc2cc(Cl)cc(C#N)c2)c1` the IC50 [1] was 750 nM, the EC50 [2] was 10000 nM and the CC50 (MT2) was 17000 nM.

Molecule `C=CC(=O)N(C)CCOc1ccccc1Oc1cc(Cl)cn2cc(C#N)cc12` has an IC50 [1] of 20 nM, an EC50 [2] of 48 nM and a CC50 (MT2) of 33000 nM.

With `C=CC(=O)N(C)CCOc1ccc(Cl)c(Oc2cccn3cc(C#N)cc23)c1` the IC50 [1] was 70 nM, the EC50 [2] was 3900 nM and the CC50 (MT2) was 31000 nM.

With `C=CC(=O)Nc1cccc(CCOc2cc(Cl)ccc2Oc2cc(Cl)cc(C#N)c2)c1` the IC50 [1] was 60 nM, the EC50 [2] was 3600 nM and the CC50 (MT2) was 17000 nM.

For `C=CS(=O)(=O)CCc1ccc(Cl)c(Oc2cc(Cl)cc(C#N)c2)c1`, the IC50 [1] was 100000 nM and the CC50 (MT2) was 6000 nM.

With `C=CC(=O)NCCOc1cc(Cl)ccc1Oc1cc(Cl)cc(C#N)c1` the IC50 [1] was 60000 nM, the EC50 [2] was 12500 nM and the CC50 (MT2) was 42000 nM.

Work on `CN(CCOc1ccc(Cl)c(Oc2cc(Cl)cc(C#N)c2)c1)C(=O)CCl` yielded an IC50 [1] of 1200 nM and a CC50 (MT2) of 1300 nM.

For `C=CC(=O)n1c(=O)n(CCOc2ccccc2Oc2cccc3cc(C#N)ccc23)c2ccccc21`, the IC50 [1] was < 5 nM, the EC50 [2] was 1 nM and the CC50 (MT2) was 4500 nM. For the same molecule, the selectivity ratio [3] was 9000.

`C=CS(=O)(=O)CCOc1ccc(Cl)c(Oc2cc(Cl)cc(C#N)c2)c1` showed an IC50 [1] of 8000 nM, an EC50 [2] of 5700 nM and a CC50 (MT2) of 7500 nM.

With `N#Cc1cc(Cl)cc(Oc2cc(CCNC(=O)CCl)ccc2Cl)c1` the IC50 [1] was 750 nM and the CC50 (MT2) was 2700 nM.

With `N#Cc1cc(Cl)cc(Oc2ccc(Cl)cc2OCc2ccccc2)c1` the IC50 [1] was 1300 nM, the EC50 [2] was 41000 nM and the CC50 (MT2) was > 100000 nM.

For `CN(C)C(=O)CCOc1ccccc1Oc1cccn2cc(C#N)cc12`, the IC50 [1] was 20 nM, the EC50 [2] was 36 nM and the CC50 (MT2) was > 100000 nM.

In the case of `C=CC(=O)N(C)CCOc1ccc(Cl)c(Oc2cccc3cc(C#N)ccc23)c1`, the IC50 [1] is reported as < 10 nM, the EC50 [2] is reported as 8500 nM and the CC50 (MT2) is reported as 25000 nM.

For `N#Cc1cc(Cl)cc(Oc2ccc(Cl)cc2OCCc2ccccc2)c1`, the IC50 [1] was 60 nM, the EC50 [2] was 3100 nM and the CC50 (MT2) was > 100000 nM.

With `C=CC(=O)N(C)CCOc1ccccc1Oc1cccc2cc(C#N)ccc12` the IC50 [1] was < 10 nM, the EC50 [2] was 1 nM and the CC50 (MT2) was 4000 nM.

`C=CC(=O)N(C)CCOc1cc(Cl)ccc1Oc1cccc2cc(C#N)ccc12` showed an IC50 [1] of 25 nM, an EC50 [2] of 17 nM and a CC50 (MT2) of 16000 nM.

For `C=CC(=O)N(C)CCOc1cc(Cl)ccc1Oc1cc(Cl)cc(C#N)c1`, the IC50 [1] was 60 nM, the EC50 [2] was 400 nM and the CC50 (MT2) was 27000 nM.

`C=CC(=O)NCCOc1ccc(Cl)c(Oc2cc(Cl)cc(C#N)c2)c1` showed an IC50 [1] of 1100 nM and a CC50 (MT2) of 32000 nM.

With `N#Cc1ccc2c(Oc3ccccc3OCCC(=O)N3CCCC3)cccc2c1` the IC50 [1] was 20 nM, the EC50 [2] was 14 nM and the CC50 (MT2) was 20000 nM.

For `N#Cc1cc2c(Oc3ccccc3OCCC(=O)NCC(F)F)cccn2c1`, the IC50 [1] was 1300 nM, the EC50 [2] was 2100 nM and the CC50 (MT2) was > 100000 nM.

For `N#Cc1cc2c(Oc3ccccc3OCCC(=O)N3CCOCC3)cccn2c1`, the IC50 [1] was 60 nM, the EC50 [2] was 190 nM and the CC50 (MT2) was > 100000 nM.

For `C=CC(=O)N(C)CCc1ccc(Cl)c(Oc2cc(Cl)cc(C#N)c2)c1`, the IC50 [1] was 500 nM, the EC50 [2] was 6200 nM and the CC50 (MT2) was 50000 nM.

Work on `C=CC(=O)N(C)CCOc1cc(Cl)ccc1Oc1cccn2cc(C#N)cc12` yielded an IC50 [1] of 26 nM, an EC50 [2] of 28 nM and a CC50 (MT2) of 30000 nM.

For `C=CS(=O)(=O)c1cccc(CCOc2cc(Cl)ccc2Oc2cc(Cl)cc(C#N)c2)c1`, the IC50 [1] was 9000 nM and the CC50 (MT2) was 16000 nM.

With `C=CC(=O)n1c(=O)n(CCOc2cc(Cl)ccc2Oc2cc(Cl)cc(C#N)c2)c2ccccc21` the IC50 [1] was 150 nM, the EC50 [2] was 470 nM and the CC50 (MT2) was 8000 nM.

For `C=CC(=O)N(C)CCOc1ccccc1Oc1cccn2cc(C#N)cc12`, the IC50 [1] was < 10 nM, the EC50 [2] was 3 nM and the CC50 (MT2) was 8800 nM.

From ChEMBL document CHEMBL5634149, “Covalent and noncovalent strategies for targeting Lys102 in HIV-1 reverse transcriptase” (Eur J Med Chem, 2023)
